These results are taken from US8604059B2, “Thioxanthene derivatives for the treatment of infectious diseases” (BKG Pharma APS, priority 2009, dated 2013).

≈ marks a conversion by molar mass, not a printed value. Where “and” joins values, the source holds several entries; their conditions need not be identical. Identical values can stand only once. Like-named read-outs stand apart in the source and are kept apart here.

Experiment [1] deals with S. epidermidis. Description: MIC, microdilution broth, multiresistant clinical isolates (Table 1A). Format: cell-based. Conditions: Staphylococcus epidermidis; ten multiresistant clinical isolates; read-out: Median MIC S. epidermidis. Here is the method: (§1) Cell growth was tested using the Minimal Inhibitory Concentration (MIC) susceptibility tests by use of the microdilution broth method in accordance to the NCCLS Guidelines (NCCLS Guidelines, Methods for Dilution Antimicrobial Susceptibility Tests for Bacteria That Grow Aerobically; Approved Standard, Sixth Edition, Volume 23; Number 2). The minimum inhibitory concentration (MIC), is defined as the lowest concentration of drug which inhibits growth of the test organism, in the sense that no visible growth is detected (total inhibition of growth). In example 2, MIC of the compounds used on fungal microorgansims was determined from the IC90 measurements according to NCCLS Guidelines.
(§2) A log phase culture of bacteria was diluted with fresh pre-warmed Mueller-Hinton medium and adjusted to a defined OD at 600 nm in order to give a final concentration of 1×10^4-5 bacteria/ml medium. The bacterial culture was transferred to microtiter-plates and culture was added to each well. […] Trays were incubated at 37° C. by shaking in a robot analyzer, PowerWavex, software KC^4′ Kebo. Lab, Copenhagen, for 16 h and optical densities were measured at 600 nm during the incubation time in order to record growth curves. Wells containing bacterial culture without drug were used as controls to ensure correct inoculum size and bacterial growth during the incubation. Cultures were tested in order to detect contaminations. Each experiment was repeated in triplicate.
(§3) Ten strains in each test group.

Experiment [2] relates to S. aureus. The description is as above. In kind it is cell-based. The conditions noted are these: Staphylococcus aureus; ten multiresistant clinical isolates; read-out: Median MIC S. aureus. The procedure: as §1, §2, §3
The subject of experiment [3] is E. coli. The experiment is described as above. Conditions: Escherichia coli; ten multiresistant clinical isolates; read-out: Median MIC E. coli. In kind it is cell-based. The procedure:
as §1, §2, §3

Experiment [4] concerns E. faecalis. The experiment is described as above. In kind it is cell-based. The conditions noted are these: Enterococcus faecalis; ten multiresistant clinical isolates; read-out: Median MIC E. faecalis. Here is the method: as §1, §2, §3
The subject of experiment [5] is E. faecium. The description is as above. In kind it is cell-based. The conditions noted are these: Enterococcus faecium; ten multiresistant clinical isolates; read-out: Median MIC E. faecium. The procedure:
as §1, §2, §3

The test system of experiment [6] is E. coli MDR clinical isolates. Kind of experiment: FIC index, synergy with antibiotics (Table 4a). Format: cell-based. Conditions: 8 MDR E. coli, mean, compound at ¼ of MIC. The procedure: (§4) The effect of the compounds was tested according to the methods described in WO2005/105145. In brief, cell growth was tested using the MIC susceptibility tests by use of the microdilution broth method in accordance to the NCCLS Guidelines (NCCLS Guidelines, Methods for Dilution Antimicrobial Susceptibility Tests for Bacteria That Grow Aerobically; Approved Standard, Sixth Edition, Volume 23; Number 2).
(§5) The Fractional Inhibitory Concentration (FIC) index were calculated for each compound as described in WO2005/105145. Synergy was defined for Fractional Inhibitory Concentration (FIC) indices less than 0.5
E. coli: 8 in vivo-selected multidrug resistant clinical isolates of E. coli. Resistant to tetracycline, beta-lactams, fluoroquinolones, chloramphenicol and aminoglycoside

The test system of experiment [7] is S. aureus MRSA clinical isolates. Description: FIC index, synergy with antibiotics (Table 4a). Format: cell-based, Staphylococcus aureus. The conditions noted are these: with Dicloxacillin; 8 MRSA; mean; compound at ¼ of MIC. Here is the method:
as §4, §5
Staphylococcus aureus: 8 (MRSA) in vivo-selected clinical isolates. Resistant to methicillin and beta-lactam antibiotics. Susceptible to teicoplanin chloramphenicol, fosfomycin, netilmicin and vancomycin.

The subject of experiment [8] is E. faecalis MDR/VRE clinical isolates. Description: FIC index, synergy with antibiotics (Table 4a). Format: cell-based, Enterococcus faecalis. The conditions noted are these: 8 MDR/VRE E. faecalis, mean, compound at ¼ of MIC. The procedure:
as §4, §5
Enterococcus faecalis: 8 multidrug resistant in vivo-selected clinical isolates. […] Expressing change in the cell wall precursor target as a major resistance mechanism (VanA gene expression).

Experiment [9] deals with Multiresistant clinical isolates E. coli. Kind of experiment: Maximal reversal of resistance and synergistic effect (Table 4c). Format: cell-based. The conditions noted are these: for Maximal reversal of resistance: concentration of compound: E. coli multiresistant isolates. The procedure:
(§6) The maximal obtained reversal of resistance and synergistic effect was tested as previously described.
Strains: Multiresistant clinical isolates E. coli, Ten strains in each group.

Experiment [10] relates to Candida albicans. Kind of experiment: Synergy with fluconazole, broth microdilution NCCLS M27-A (Table 10). In kind it is cell-based. The conditions noted are these: Candida albicans. Here is the method: The isolates were subcultured for 24 h on Sabouraud glucose agar before susceptibility testing. Broth microdilution tests were performed according to NCCLS document M27-A (Ref: National Commitee for Clinical Laboratory Standards. (1997). Reference Method for Broth Dilution Antifungal Susceptibility Testing of Yeasts: Approved Standard M27-A. NCCLS, Wayne, Pa.) Microtitre plates were read spectrophotometrically at 530 nm, after mixing the wells by pipetting to resuspend yeast sediments. […] The Fractional Inhibitory Concentration (FIC) was calculated for the anti-infective agent alone and in combination with compound 3 and 4 (see table 4) as described above. Synergy was defined as a FIC index of <0.5.

The test system of experiment [11] is Enterococcus faecalis ENT 28 (VRE). Kind of experiment: Mouse peritonitis model, neutropenic NMRI mice, enhancing effect with linezolid. In kind it is in vivo. The procedure:
A multiresistant clinical isolate of Enterococcus faecalis ENT 28 (VRE) from human urine was used.
Female NMRI mice (age, approximately 6 to 8 weeks; weight, 30±2 g) were used for the mouse […] peritonitis model (as described below).
In order to detect any synergistic effect, infected mice were treated with sub-therapeutic doses of each test compound alone or a mixture of the two compounds.
Bacterial suspensions were prepared from fresh overnight cultures (made from frozen stock cultures) on 5% blood agar plates as described above. The inoculum for the mouse peritonitis model was prepared immediately before use and was adjusted at 540 nm of giving a density of approximately 10^7 CFU/ml. The size of the inoculum was determined by viability counting on 5% blood agar.
Neutropenia was introduced by pretreating the mice with cyclophosphamide (6 mg daily for three days). […] Antibiotic therapy was initiated just after inoculation. Linezolid and compound 3 was administered subcutaneously in the neck region in a volume of 0.5 ml per dose. 3 mice were in each treatment group. Inoculated untreated control mice were included in all trials. (Method reference: Erlandsdottir et al; Antimicrob Agents Chemother. 2001 April; 45(4):1078-85)
The effects of the various treatment regimens were determined during 5 h of treatment by evaluation of bacterial counts in the peritoneal fluid. After the mice were killed, peritoneal washes were performed by injecting 2 ml of sterile saline intraperitoneally, followed by massage of the abdomen and then opening of the peritoneum to collect the fluid. Peritoneal fluids were immediately diluted 10-fold in saline, from which 20 μl was plated onto 5% blood agar plates in spots, with subsequent counting of colonies after incubation overnight at 35° C. The lowest detection levels for bacterial counts in blood and peritoneal fluid were 50 and 250 CFU/ml, respectively.

Experiment [12] relates to Multiresistant clinical isolates of S. aureus and S. epidermidis. Description: Maximal reversal of resistance and synergistic effect (Table 4b). Format: cell-based. Here is the method: as §6
Strains: Multiresistant clinical isolates of S. aureus and S. epidermidis, Ten strains in each group.

Setting [13] is: treatment 0 and 2 hours, sampling 5 hours, sub-therapeutic doses as in Table 9, individual mice.

With `Clc1ccc2c(c1)/C(=C/CCN1CCNCC1)c1ccccc1S2` [Compound 1, N-dealkyl-transclopenthixol], the MIC was 2.4 µg/mL (≈ 6.72 µM) in experiment [1]; 3.6 µg/mL (≈ 10.1 µM) in [2]; 6 µg/mL (≈ 16.8 µM) in experiment [3]; 0.6 µg/mL (≈ 1.68 µM) in [4]; 0.6 µg/mL (≈ 1.68 µM) in experiment [5]. Besides, the FIC index worked out at 0.47 in experiment [6] (with Ampicillin); 0.47 in experiment [6] (with Ciprofloxacin); 0.47 in [6] (with Gentamycin); 0.47 in experiment [6] (with Tetracycline); 0.28 in [7]; 0.28 in experiment [8] (with Ciprofloxacin). Also, in experiment [8] (with Dicloxacillin), the FIC index came out at 0.28. For the same molecule, in [9], the “Maximal reversal of resistance: concentration of compound” value came to 1.0 µg/mL.

With `OCCN1CCN(CC/C=C2\c3ccccc3Sc3ccc(Cl)cc32)CC1` [Compound 2, trans-clopentixol], the MIC in experiment [1] is 8 µg/mL (≈ 20 µM); in experiment [2] it was 8 µg/mL (≈ 20 µM); in experiment [3] it was 16 µg/mL (≈ 39.9 µM); in [4], 1 µg/mL (≈ 2.49 µM); in experiment [5], 1 µg/mL (≈ 2.49 µM). For the same molecule, the FIC index was 0.47 in experiment [6] (with Ampicillin); 0.44 in [6] (with Ciprofloxacin); 0.44 in experiment [6] (with Gentamycin); 0.47 in experiment [6] (with Tetracycline); 0.37 in [7]; 0.47 in experiment [8] (with Ciprofloxacin). In addition, the FIC index in experiment [8] (with Dicloxacillin) is listed as 0.47. For the same molecule, the “Maximal reversal of resistance: concentration of compound” value in [9] was found to be 2.0 µg/mL.

Consider `OC(Cn1cncn1)(Cn1cncn1)c1ccc(F)cc1F` [Fluconazole], for which the MIC in [10] (Table 10A, fluconazole in presence of compound 3 at 0.25 μg/ml, read-out: MIC FL + comp 3 (0.25 μg/m1)) was 4 µg/mL; in experiment [10] (Table 10B (compound 4), fluconazole in presence of compound at 0.50 μg/ml, read-out: MIC FL + comp 3 (0.50 μg/ml)) it was 8 µg/mL; in [10] (read-out: MIC Fluconazole (FL)) it was 128 µg/mL.

For `CC(=O)NC[C@H]1CN(c2ccc(N3CCOCC3)c(F)c2)C(=O)O1` [Linezolid], in experiment [11] (sub-therapeutic dose alone), the “Effect on the infection / bacteria in mouse peritoneum” value is “no effect on the infection”. Also, the score at sampling in experiment [11] (treatment 0 and 2 hours, sampling 5 hours, Linezolid 1 mg/ml 0.5 ml, Compound 3 0.1 mg/ml 0.5, combination Linezolid 2 mg/ml (0.25 ml) and compound 3 0.2 mg/ml (0.25 ml), individual mice) is 2 and 3 (2×). For the same molecule, in experiment [11] (setting [13]), the Cfu/ml peritoneum was 2.08E+09 Cfu/ml and 2.20E+09 Cfu/ml and 2.40E+09 Cfu/ml; the “log (cfu/ml) peritoneum” value is 9.32 log (cfu/ml) and 9.34 log (cfu/ml) and 9.38 log (cfu/ml).

Regarding Gentamicin, in [12] (MIC of antibiotic in presence of compound 1 at 0.60 ug/ml, median), the “MIC plus compound 1 0.60 ug/ml” value was determined as 4 µg/mL. In experiment [12] (MIC of antibiotic in presence of compound 2 at 0.98 ug/ml, median), the “MIC compound 2 0.98 ug/ml” value was 4 µg/mL. In addition, the “MIC plus compound 3 0.30 ug/ml” value in experiment [12] (MIC of antibiotic in presence of compound 3 at 0.30 ug/ml, median) turned out to be 2 µg/mL. The “MIC plus compound 4 0.75 ug/ml” value in experiment [12] (MIC of antibiotic in presence of compound 4 at 0.75 ug/ml, median) turned out to be 4 µg/mL. The MIC alone stood at 8 µg/mL in experiment [12] (antibiotic alone, median, ten strains in each group) and 8 µg/mL in [9] (antibiotic alone, median, ten strains). Moreover, the “Fold enhanced, compound 1 0.60 ug/ml” value in [12] (enhancement of antibiotic by compound 1 at 0.60 ug/ml) is reported as 2. Also, the “Fold enhanced, compound 2 0.98 ug/ml” value in experiment [12] (enhancement of antibiotic by compound 2 at 0.98 ug/ml) is 2. In addition, the “Fold enhanced, compound 3 0.30 ug/ml” value in experiment [12] (enhancement of antibiotic by compound 3 at 0.30 ug/ml) was determined as 4. For the same molecule, in experiment [12] (enhancement of antibiotic by compound 4 at 0.75 ug/ml), the “Fold enhanced, compound 4 0.75 ug/ml” value was 2. The “MIC plus compound 1 1.0 ug/ml” value in experiment [9] (MIC of antibiotic in presence of compound 1 at 1.0 ug/ml, median) worked out at 4 µg/mL. Moreover, the “MIC plus compound 2 2.0 ug/ml” value in [9] (MIC of antibiotic in presence of compound 2 at 2.0 ug/ml, median) was found to be 4 µg/mL. Also, the “MIC plus compound 3 0.6 ug/ml” value in [9] (MIC of antibiotic in presence of compound 3 at 0.6 ug/ml, median) stood at 2 µg/mL. In addition, the “Fold enhanced, compound 1 1.0 ug/ml” value in [9] (enhancement of antibiotic by compound 1 at 1.0 ug/ml) is given as 2. For the same molecule, the “Fold enhanced, compound 2 2.0 ug/ml” value in [9] (enhancement of antibiotic by compound 2 at 2.0 ug/ml) amounted to 2. In experiment [9] (enhancement of antibiotic by compound 3 at 0.6 ug/ml), the “Fold enhanced, compound 3 0.6 ug/ml” value came to 4.
